Measurements from PubChem BioAssay AID1963842 (Molecular Pharmacology Branch, DTP, NCI, 2024).

System: 677734-321-R-J1-PDC complex spheroid viability
Test: Anticancer human tumor 677734-321-R-J1-PDC patient-derived soft tissue sarcoma cell line growth inhibition [POLQ]
Settings: for IC50: curve of first compound; for viability, T/C: stronger effect = lower value
How it was run: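 Complex spheroid viability model combining PDC tumour cells with endothelial (HUVEC) and MSC stromal cells. Novobiocin, ART-558 or RP6685 were tested singly and in combination with standard and investigational anticancer drugs. Each was titrated in half-log steps from near clinical Cmax, or from 10 microM where Cmax was unknown.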

[1] = second compound 0.0316 µM, first compound 0.0316 µM
[2] = second compound 0.0316 µM, first compound 0.1 µM
[3] = second compound 0.0316 µM, first compound 0.316 µM
[4] = second compound 0.0316 µM, first compound 1 µM
[5] = second compound 0.0316 µM, first compound 3.16 µM
[6] = second compound 0.0316 µM, first compound 10 µM
[7] = second compound 0.1 µM, first compound 0.0316 µM
[8] = second compound 0.1 µM, first compound 0.1 µM
[9] = second compound 0.1 µM, first compound 0.316 µM
[10] = second compound 0.1 µM, first compound 1 µM
[11] = second compound 0.1 µM, first compound 3.16 µM
[12] = second compound 0.1 µM, first compound 10 µM
[13] = second compound 0.316 µM, first compound 0.0316 µM
[14] = second compound 0.316 µM, first compound 0.1 µM
[15] = second compound 0.316 µM, first compound 0.316 µM
[16] = second compound 0.316 µM, first compound 1 µM
[17] = second compound 0.316 µM, first compound 3.16 µM
[18] = second compound 0.316 µM, first compound 10 µM
[19] = second compound 1 µM, first compound 0.0316 µM
[20] = second compound 1 µM, first compound 0.1 µM
[21] = second compound 1 µM, first compound 0.316 µM
[22] = second compound 1 µM, first compound 1 µM
[23] = second compound 1 µM, first compound 3.16 µM
[24] = second compound 1 µM, first compound 10 µM
[25] = second compound 3.16 µM, first compound 0.0316 µM
[26] = second compound 3.16 µM, first compound 0.1 µM
[27] = second compound 3.16 µM, first compound 0.316 µM
[28] = second compound 3.16 µM, first compound 1 µM
[29] = second compound 3.16 µM, first compound 3.16 µM
[30] = second compound 3.16 µM, first compound 10 µM
[31] = second compound 10 µM, first compound 0.0316 µM
[32] = second compound 10 µM, first compound 0.1 µM
[33] = second compound 10 µM, first compound 0.316 µM
[34] = second compound 10 µM, first compound 1 µM
[35] = second compound 10 µM, first compound 3.16 µM
[36] = second compound 10 µM, first compound 10 µM
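Note: spheroids exposed to compounds for one week.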
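Throughout, for viability, T/C: 100% = vehicle DMSO treated spheroids.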

With `CC1COCCN1c1cc(-c2ccnn2C)c2ccnc(-c3ccn[nH]3)c2n1` (stereo unspecified) + Cc1cccc(N(C)C(=O)C2C(O)CCN2c2nc(C)cc(C(F)(F)F)c2C#N)c1 as the molecule, how does the IC50 (second compound 0.0316 µM) read?
Its IC50 is 161 nM.

What about the IC50 (second compound 0.1 µM) of the same molecule?
Its IC50 is 175 nM.

What about the IC50 (second compound 0.316 µM) of the same molecule?
The IC50 was 153 nM.

And the IC50 (second compound 1 µM)?
The IC50 was 156 nM.

And the IC50 (second compound 3.16 µM)?
Its IC50 is 125 nM.

And the IC50 (second compound 10 µM)?
The IC50 was 110 nM.

And the viability, T/C [1]?
The viability, T/C was 100%.

And the viability, T/C [2]?
Its viability, T/C is 67.6%.

And the viability, T/C [3]?
Its viability, T/C is 24.8%.

What about the viability, T/C [4] of the same molecule?
Its viability, T/C is 21.6%.

What about the viability, T/C [5] of the same molecule?
Its viability, T/C is 18.2%.

And the viability, T/C [6]?
The viability, T/C was 14.3%.

And the viability, T/C [7]?
Its viability, T/C is 88.9%.

And the viability, T/C [8]?
Its viability, T/C is 70.9%.

What about the viability, T/C [9] of the same molecule?
The viability, T/C was 27.8%.

What about the viability, T/C [10] of the same molecule?
Its viability, T/C is 17.1%.

What about the viability, T/C [11] of the same molecule?
Its viability, T/C is 17.4%.

What about the viability, T/C [12] of the same molecule?
Its viability, T/C is 16.6%.

What about the viability, T/C [13] of the same molecule?
The viability, T/C was 98.1%.

And the viability, T/C [14]?
Its viability, T/C is 64.9%.

What about the viability, T/C [15] of the same molecule?
Its viability, T/C is 24.2%.

And the viability, T/C [16]?
Its viability, T/C is 19.6%.

And the viability, T/C [17]?
The viability, T/C was 20.3%.

And the viability, T/C [18]?
Its viability, T/C is 16.3%.

And the viability, T/C [19]?
Its viability, T/C is 99.9%.

And the viability, T/C [20]?
The viability, T/C was 65.5%.

And the viability, T/C [21]?
Its viability, T/C is 25.4%.

What about the viability, T/C [22] of the same molecule?
Its viability, T/C is 18.7%.

And the viability, T/C [23]?
The viability, T/C was 18.9%.

And the viability, T/C [24]?
The viability, T/C was 15.8%.

What about the viability, T/C [25] of the same molecule?
The viability, T/C was 90.7%.

What about the viability, T/C [26] of the same molecule?
Its viability, T/C is 56%.

And the viability, T/C [27]?
The viability, T/C was 25.2%.

And the viability, T/C [28]?
The viability, T/C was 19.1%.

What about the viability, T/C [29] of the same molecule?
Its viability, T/C is 16.5%.

And the viability, T/C [30]?
Its viability, T/C is 18.6%.

What about the viability, T/C [31] of the same molecule?
The viability, T/C was 89.7%.

What about the viability, T/C [32] of the same molecule?
The viability, T/C was 52.5%.

And the viability, T/C [33]?
The viability, T/C was 21.7%.

And the viability, T/C [34]?
Its viability, T/C is 17.2%.

What about the viability, T/C [35] of the same molecule?
Its viability, T/C is 18.4%.

And the viability, T/C [36]?
The viability, T/C was 16%.

Which IC50 (second compound 0.0316 µM) does the source give for `CC1COCCN1c1cc(C2(S(C)(=N)=O)CC2)nc(-c2ccnc3[nH]ccc23)n1` (stereo unspecified) + Cc1cccc(N(C)C(=O)C2C(O)CCN2c2nc(C)cc(C(F)(F)F)c2C#N)c1 here?
The IC50 was 4030 nM.

And the IC50 (second compound 0.1 µM)?
Its IC50 is 3860 nM.

And the IC50 (second compound 0.316 µM)?
Its IC50 is 3910 nM.

And the IC50 (second compound 1 µM)?
Its IC50 is 3790 nM.

What about the IC50 (second compound 3.16 µM) of the same molecule?
Its IC50 is 3100 nM.

What about the IC50 (second compound 10 µM) of the same molecule?
Its IC50 is 3030 nM.

And the viability, T/C [1]?
Its viability, T/C is 106%.

And the viability, T/C [2]?
Its viability, T/C is 105%.

And the viability, T/C [3]?
Its viability, T/C is 104%.

What about the viability, T/C [4] of the same molecule?
Its viability, T/C is 91%.

And the viability, T/C [5]?
The viability, T/C was 57%.

What about the viability, T/C [6] of the same molecule?
The viability, T/C was 24.2%.

And the viability, T/C [7]?
The viability, T/C was 106%.

And the viability, T/C [8]?
The viability, T/C was 110%.

What about the viability, T/C [9] of the same molecule?
Its viability, T/C is 96.5%.

And the viability, T/C [10]?
Its viability, T/C is 92.9%.

What about the viability, T/C [11] of the same molecule?
The viability, T/C was 53.6%.

And the viability, T/C [12]?
Its viability, T/C is 28.6%.

What about the viability, T/C [13] of the same molecule?
Its viability, T/C is 117%.

What about the viability, T/C [14] of the same molecule?
The viability, T/C was 108%.

And the viability, T/C [15]?
The viability, T/C was 100%.

What about the viability, T/C [16] of the same molecule?
Its viability, T/C is 90.4%.

What about the viability, T/C [17] of the same molecule?
The viability, T/C was 54.3%.

And the viability, T/C [18]?
Its viability, T/C is 22%.

And the viability, T/C [19]?
The viability, T/C was 109%.

And the viability, T/C [20]?
The viability, T/C was 102%.

What about the viability, T/C [21] of the same molecule?
Its viability, T/C is 98.5%.

What about the viability, T/C [22] of the same molecule?
Its viability, T/C is 98.3%.

And the viability, T/C [23]?
The viability, T/C was 54.5%.

And the viability, T/C [24]?
The viability, T/C was 25.4%.

And the viability, T/C [25]?
The viability, T/C was 104%.

And the viability, T/C [26]?
Its viability, T/C is 103%.

And the viability, T/C [27]?
Its viability, T/C is 99.7%.

And the viability, T/C [28]?
The viability, T/C was 90.6%.

And the viability, T/C [29]?
The viability, T/C was 49.2%.

And the viability, T/C [30]?
Its viability, T/C is 37.8%.

What about the viability, T/C [31] of the same molecule?
The viability, T/C was 102%.

And the viability, T/C [32]?
Its viability, T/C is 96.5%.

And the viability, T/C [33]?
The viability, T/C was 93.1%.

What about the viability, T/C [34] of the same molecule?
Its viability, T/C is 87%.

And the viability, T/C [35]?
Its viability, T/C is 48.3%.

What about the viability, T/C [36] of the same molecule?
The viability, T/C was 26%.

What does the source list for `CCc1c2c(nc3ccc(O)cc13)-c1cc3c(c(=O)n1C2)COC(=O)[C@]3(O)CC` + Cc1cccc(N(C)C(=O)C2C(O)CCN2c2nc(C)cc(C(F)(F)F)c2C#N)c1?
IC50 (second compound 0.0316 µM): < 3.16 nM; IC50 (second compound 0.1 µM): < 3.16 nM; IC50 (second compound 0.316 µM): < 3.16 nM; IC50 (second compound 1 µM): < 3.16 nM; IC50 (second compound 3.16 µM): < 3.16 nM; IC50 (second compound 10 µM): < 3.16 nM; viability, T/C (second compound 0.0316 µM, first compound 0.00316 µM): 34%; viability, T/C (second compound 0.0316 µM, first compound 0.01 µM): 20.2%; viability, T/C [1]: 5.31%; viability, T/C [2]: 2.32%; viability, T/C [3]: 1.63%; viability, T/C [4]: 1.3%; viability, T/C (second compound 0.1 µM, first compound 0.00316 µM): 26.2%; viability, T/C (second compound 0.1 µM, first compound 0.01 µM): 15.4%; viability, T/C [7]: 5.43%; viability, T/C [8]: 2.52%; viability, T/C [9]: 1.76%; viability, T/C [10]: 2.63%; viability, T/C (second compound 0.316 µM, first compound 0.00316 µM): 28%; viability, T/C (second compound 0.316 µM, first compound 0.01 µM): 18.8%; viability, T/C [13]: 4.71%; viability, T/C [14]: 2.82%; viability, T/C [15]: 1.97%; viability, T/C [16]: 2.54%; viability, T/C (second compound 1 µM, first compound 0.00316 µM): 30.3%; viability, T/C (second compound 1 µM, first compound 0.01 µM): 15.7%; viability, T/C [19]: 5.16%; viability, T/C [20]: 2.53%; viability, T/C [21]: 1.97%; viability, T/C [22]: 2.5%; viability, T/C (second compound 3.16 µM, first compound 0.00316 µM): 36.4%; viability, T/C (second compound 3.16 µM, first compound 0.01 µM): 13.5%; viability, T/C [25]: 4.68%; viability, T/C [26]: 2.35%; viability, T/C [27]: 2.92%; viability, T/C [28]: 1.89%; viability, T/C (second compound 10 µM, first compound 0.00316 µM): 28.2%; viability, T/C (second compound 10 µM, first compound 0.01 µM): 15.4%; viability, T/C [31]: 5.22%; viability, T/C [32]: 3.2%; viability, T/C [33]: 3.11%; viability, T/C [34]: 1.34%
